Results reported in PMC8012715, “Mechanism of NanR gene repression and allosteric induction of bacterial sialic acid metabolism” (Nature Communications, 2021).

Biological target: T1, NanR (Escherichia coli, UniProt P0A8W0)
T1 construct: crystals by in situ chymotrypsin proteolysis
T1 sequence (P0A8W0 1-263): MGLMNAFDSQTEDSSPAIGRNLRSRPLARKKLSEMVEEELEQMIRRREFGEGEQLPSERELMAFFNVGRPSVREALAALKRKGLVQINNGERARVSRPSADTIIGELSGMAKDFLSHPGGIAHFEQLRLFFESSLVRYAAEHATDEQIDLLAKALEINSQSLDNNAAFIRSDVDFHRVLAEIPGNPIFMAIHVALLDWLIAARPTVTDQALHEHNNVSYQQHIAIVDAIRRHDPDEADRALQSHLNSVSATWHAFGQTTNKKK
Test: isothermal titration calorimetry
Conditions: 20 mM Tris-HCl pH 8.0, 150 mM NaCl; 8 °C; no DNA; Zn2+-loaded protein; effector-binding domain; allosteric

Kd: 16 µM
SMILES: CC(=O)N[C@H]1[C@H]([C@H](O)[C@H](O)CO)OC(O)(C(=O)O)C[C@@H]1O (stereo partly shown) [Neu5Ac]
